Patent US20250186960A1, “BIODEGRADABLE MICROCAPSULES AND A METHOD FOR THEIR PREPARATION” (priority 2022, published 2025)

Assay: Microcapsule fragrance loading quantification via GC
Assay type: physicochemical
Settings: for Composition 1 (encapsulate wt %): level of the fragrance material in microcapsules of Example 21A; for Composition 1 (oil wt %) / Composition 2 (oil wt %): share of the fragrance material in the encapsulated oil; for Composition 1 (oil wt %): Example 21A; for Composition 2 (encapsulate wt %): level of the fragrance material in microcapsules of Example 21B; for Composition 2 (oil wt %): Example 21B
Text: Fragrance levels in the microcapsule can be determined by extraction of the fragrance and injection into a GC column. An Agilent 8890 gas chromatograph is used, equipped with a HP-5MS column, and using hydrogen as carrier gas. Quantification is achieved by use of a calibration curve for the given fragrance material diluted in ethanol.
To measure the total level of fragrance in an encapsulate sample, the capsules must first be broken by sonication, for example 1.0 g of encapsulate in 2.0 g of DI water with a Bandelin Sonopuls HD4200 ultrasonicator, equipped with probe TS104 for 1 minute at 30% amplitude (around 1.5 KJ in total). A few drops of aqueous potassium hydroxide solution (10% wt) are added before sonication to raise the pH of the solution above 11. While sonicating, ice is used to keep the temperature below room temperature (20° C.) to avoid any loss of fragrance through evaporation. A microscope is used to check visually if the capsules are fully broken. If not, sonication is repeated. Ethanol is added to the mixture, which is then mixed and centrifuged. The supernatant is collected and retained as the first extraction. The residue is mixed with ethanol again and centrifuged. The supernatant is collected and added to the first extraction. This is then diluted as appropriate and injected into the GC for analysis.
To measure the level of free fragrance in the sample (i.e. the level of un-encapsulated fragrance), the encapsulate slurry is well mixed in DI water and filtered using a sterile cell strainer (40 μm Nylon mesh). The filtrate is diluted with ethanol and injected into the GC for analysis.
The encapsulated fragrance level is the difference between the total fragrance and the free fragrance levels.

Compound | Composition 1 (encapsulate wt %) | Composition 1 (oil wt %) | Composition 2 (encapsulate wt %) | Composition 2 (oil wt %)
CCCCCCCCCCCC#N [dodecane nitrile] | 0.79 wt % | 43.2 wt % | – | –
c1ccc(Oc2ccccc2)cc1 [Diphenyl oxide] | – | – | 0.59 wt % | 20.1 wt %
Ortho tertiary butyl cyclo hexyl acetate | – | – | 0.52 wt % | 17.7 wt %
C/C=C/C(=O)C1C(C)C=CCC1(C)C (centres unmarked) [Delta damascone] | 0.54 wt % | 29.5 wt % | 0.53 wt % | 18.1 wt %
CCC=C(C)C(O)CCCCC (centres unmarked) [Undecavertol] | 0.39 wt % | 21.3 wt % | – | –
O=C(OCc1ccccc1)c1ccccc1O [Benzyl salicylate] | – | – | 0.66 wt % | 22.5 wt %
C=C(C)[C@H]1CC=C(C)CC1 [Dipentene] | – | – | 0.63 wt % | 21.5 wt %
CC(C)=CCC/C(C)=C/CO [Geraniol] | 0.11 wt % | 6.0 wt % | – | –
OC/C=C/c1ccccc1 [Cinnamic alcohol] | 0.01 wt % | 0.5 wt % | – | –
